Results taken from patent publication US5116841A, “Imidazoquinoxalines and their preparation and use” (Novo Nordisk A/S, priority 1989, dated 1992).

Test system: benzodiazepine receptors
Experiment: in vivo displacement of 3H-flunitrazepam from brain benzodiazepine receptors in mice
Settings: female NMR mice, i.p.; 3H-FNM i.v. 15 min after test substance; forebrain 20 min later; dose inhibiting 50% of specific 3H-FNM binding
Excerpt: The pharmaceutical properties of the compounds of the invention can be illustrated by determining their capability for displacing radioactive labelled flunitrazepam from benzodiazepine receptors.
The displacement activity of the compounds of the invention may be found by determining the ED50 value. The ED50 value represents the dose (mg/kg) of a test substance which causes the specific binding of flunitrazepam to benzodiazepine receptors in a living brain to be reduced to 50% of the control value.
Such an in vivo test is carried out as follows:
Principle. Twenty minutes after a dose of ^3 H-flunitrazepam (^3 H-FNM) (200 μCi/kg, i.v.) the amount of specific ^3 H-FNM binding to brain benzodiazepine receptors has reached its maximal value.
Test procedure. Suspensions of test substances (2 mg/ml) are prepared in 5% Duphasol-X (TM Duphar, castor oil-ethylene oxide derivative for emulsifying and solubilizing oil and other water-insoluble substances) by sonification for 10 min using a Branson B15 microtip ultrasonifier (setting 7). Groups of three mice (female, NMR, 18-22 grams) are injected with the test substance at 100 mg/kg intraperitoneally. Fifteen minutes after test substance administration the mice are challenged with 4 μCi intravenously of ^3 H-FNM (70-90) Ci/mole) in 200 μl physiological saline. Twenty minutes after ^3 H-FNM administration mice are sacrificed by decapitation, the forebrains rapidly excised (within 30 sec) and homogenized in 12 ml of icecold 25 mM KH2 PO4, pH 7.1, using an Ultra-Turrax homogenizer fitted with an N 10 shaft. […] The amounts of radioactivity on the filters are determined by conventional scintillation counting. […]
Results. The ED50 value is determined from dose response curves. If only one dose of test substance is administered the ED50 value is calculated as follows, provided that the inhibition of specific binding is within the range of 25-75%: [formula] where Co is specific binding in controls and Cx is specific binding in mice treated with test substance.

Structure (SMILES) | ED50
CC(C)n1c(=O)c2c(-c3cc(C4CC4)on3)ncn2c2ccccc21 [Compound 8, 3-(5-cyclopropyl-3-isoxazolyl)-4,5-dihydro-5-isopropyl-4-oxo-imidazo[1,5-a]quinoxaline] | 1,8 mg/kg
COc1cccc(Cn2c(=O)c3c(-c4cc(C)no4)ncn3c3ccccc32)c1 [Compound 27, 4,5-dihydro-5-(3-methoxybenzyl)-3-(3-methyl-5-isoxazolyl)-4-oxo-imidazo[1,5-a]quinoxaline] | 0,45 mg/kg
CC(C)=CCn1c(=O)c2c(-c3cc(C)no3)ncn2c2ccccc21 [Compound 29, 4,5-dihydro-5-(3,3-dimethylallyl)-3-(3-methyl-5-isoxazolyl)-4-oxo-imidazo[1,5-a]quinoxaline] | 0,37 mg/kg
